Patent publication US20160340674A1, “Compositions and Methods to Inhibit EZH2 for the Treatment of Cardiovascular Diseases” (UNIVERSITY OF ROCHESTER, priority 2014, published 2016)

System: human umbilical vein endothelial cells (HUVECs)
Assay: KLF2 and eNOS gene expression in endothelial cells treated with GSK126 (RT-PCR and q-PCR)
Type: cell-based
Text: Experiments were designed to determine the effects of the EZH2 inhibitor GSK126 on expression of genes KLF2 and eNOS in endothelial cells. Histone methylation is an important epigenetic modification. Histone 3 lysine 27 (H3K27) is correlated with transcriptional repression. EZH2, a histone methytransferase, is critical for the epigenetic maintenance of the H3K27me3 repressive chromatin mark. To determine whether the alternation of histone methylation affects gene expression in endothelial cells, experiments were designed to assess the effects of an EZH2 inhibitor GSK126. […]

[1] = 0.02 μM GSK126 for different times, RT-PCR and q-PCR (FIG. 1)

CC[C@H](C)n1cc(C)c2c(C(=O)NCc3c(C)cc(C)[nH]c3=O)cc(-c3ccc(N4CCNCC4)nc3)cc21 [GSK126, (S)-1-(sec-butyl)-N-((4,6-dimethyl-2-oxo-1,2-dihydropyridin-3-yl)methyl)-3-methyl-6-(6-(piperazin-1-yl)pyridin-3-yl)-1H-indole-4-carboxamide]
level of KLF2 mRNA [1]: increased
level of eNOS mRNA [1]: increased
KLF2 expression (24 hours at different concentrations (FIG. 2A)): dose-dependently increased
eNOS expression (24 hours at different concentrations (FIG. 2B)): dose-dependently increased
